Our source for the Kd and cystine uptake values is publication PMC12959773 (Protein & Cell, 2025).

The target in one assay is T1, SLC7A9-SLC3A1 complex (Homo sapiens, UniProt P82251).
T1 construct: heterodimeric light/heavy chain transporter, dimer of heterodimers; ectopically expressed in HEK293T cells; with Amino acid transporter heavy chain SLC3A1
T1 sequence (P82251 1-487): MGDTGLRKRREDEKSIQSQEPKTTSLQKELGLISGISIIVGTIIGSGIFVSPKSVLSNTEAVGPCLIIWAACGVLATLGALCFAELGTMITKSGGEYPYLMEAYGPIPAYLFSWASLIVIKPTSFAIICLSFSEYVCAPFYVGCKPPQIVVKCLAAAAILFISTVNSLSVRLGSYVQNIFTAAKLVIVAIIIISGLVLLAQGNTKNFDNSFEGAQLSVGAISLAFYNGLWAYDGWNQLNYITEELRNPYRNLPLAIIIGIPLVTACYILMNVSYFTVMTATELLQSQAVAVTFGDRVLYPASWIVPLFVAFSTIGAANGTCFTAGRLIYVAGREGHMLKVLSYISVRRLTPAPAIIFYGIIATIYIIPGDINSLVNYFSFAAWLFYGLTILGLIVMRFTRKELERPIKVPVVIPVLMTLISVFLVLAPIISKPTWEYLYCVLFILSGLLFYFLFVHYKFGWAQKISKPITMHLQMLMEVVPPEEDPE
T1 sequence (Q07837 1-685 partner): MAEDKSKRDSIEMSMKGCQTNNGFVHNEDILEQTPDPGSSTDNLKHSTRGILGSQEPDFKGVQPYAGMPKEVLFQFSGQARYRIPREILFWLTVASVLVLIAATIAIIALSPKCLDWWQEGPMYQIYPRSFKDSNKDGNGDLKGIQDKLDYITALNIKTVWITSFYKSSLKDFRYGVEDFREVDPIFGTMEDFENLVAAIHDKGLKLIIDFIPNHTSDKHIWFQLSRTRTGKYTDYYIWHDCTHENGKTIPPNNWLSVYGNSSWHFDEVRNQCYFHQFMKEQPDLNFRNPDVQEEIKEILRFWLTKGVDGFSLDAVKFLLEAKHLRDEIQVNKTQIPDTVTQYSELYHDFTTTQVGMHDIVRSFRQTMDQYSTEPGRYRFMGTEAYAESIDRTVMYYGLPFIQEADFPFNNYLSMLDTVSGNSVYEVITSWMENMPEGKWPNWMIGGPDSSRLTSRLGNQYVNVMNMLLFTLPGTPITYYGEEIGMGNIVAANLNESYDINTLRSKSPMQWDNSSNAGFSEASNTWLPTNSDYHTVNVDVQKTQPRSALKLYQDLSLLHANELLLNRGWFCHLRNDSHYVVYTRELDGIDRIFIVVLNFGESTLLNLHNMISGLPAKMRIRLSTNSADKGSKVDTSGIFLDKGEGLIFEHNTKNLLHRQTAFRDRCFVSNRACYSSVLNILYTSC
The assay can be described thus: microscale thermophoresis. To be noted: read-out: binding affinity. In general terms: MST reads how a fluorescent partner responds to local heating, with and without ligand.

For assay [1], the target named is T2, SLC7A13-SLC3A1 complex (Homo sapiens, UniProt Q8TCU3, F224A).
T2 construct: heterodimeric light/heavy chain transporter, dimer of heterodimers; ectopically expressed in HEK293T / HEK293 cells (Expi293 for cryo-EM); with Amino acid transporter heavy chain SLC3A1
T2 sequence (Q8TCU3 1-470 F224A): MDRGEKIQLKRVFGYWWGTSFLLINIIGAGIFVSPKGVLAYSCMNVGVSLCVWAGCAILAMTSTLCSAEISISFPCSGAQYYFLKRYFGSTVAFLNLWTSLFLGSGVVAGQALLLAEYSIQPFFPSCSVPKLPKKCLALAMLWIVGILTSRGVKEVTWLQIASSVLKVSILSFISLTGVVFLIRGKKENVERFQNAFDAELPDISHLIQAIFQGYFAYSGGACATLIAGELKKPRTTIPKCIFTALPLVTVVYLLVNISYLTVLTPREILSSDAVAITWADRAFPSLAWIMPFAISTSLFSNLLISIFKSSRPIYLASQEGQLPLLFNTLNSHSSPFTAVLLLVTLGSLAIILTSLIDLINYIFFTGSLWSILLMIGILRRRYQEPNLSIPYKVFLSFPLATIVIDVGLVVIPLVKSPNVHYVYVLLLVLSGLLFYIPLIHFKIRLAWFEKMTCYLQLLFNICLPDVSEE
T2 sequence (Q07837 1-685 partner): T1 sequence (Q07837 1-685 partner)
The assay can be described thus: [2H]-cystine uptake, isotope tracking. Particulars: HEK293 cells transfected with SLC7A13 and SLC3A1; labelled compound. The format is cell-based.

The target of assay [2] is T3, SLC7A13-SLC3A1 complex (Homo sapiens, UniProt Q8TCU3, K309A).
T3 construct: heterodimeric light/heavy chain transporter, dimer of heterodimers; ectopically expressed in HEK293T / HEK293 cells (Expi293 for cryo-EM); with Amino acid transporter heavy chain SLC3A1
T3 sequence (Q8TCU3 1-470 K309A): T2 sequence (Q8TCU3 1-470 F224A) with A224F, K309A
T3 sequence (Q07837 1-685 partner): T1 sequence (Q07837 1-685 partner)
In words: [2H]-cystine uptake, isotope tracking. Type of assay: cell-based. To be noted: HEK293 cells transfected with SLC7A13 and SLC3A1; labelled compound.

Assay [3] addresses T4, SLC7A13-SLC3A1 complex (Homo sapiens, UniProt Q8TCU3, F216A).
T4 construct: heterodimeric light/heavy chain transporter, dimer of heterodimers; ectopically expressed in HEK293T / HEK293 cells (Expi293 for cryo-EM); with Amino acid transporter heavy chain SLC3A1
T4 sequence (Q8TCU3 1-470 F216A): T2 sequence (Q8TCU3 1-470 F224A) with F216A, A224F
T4 sequence (Q07837 1-685 partner): T1 sequence (Q07837 1-685 partner)
In words: [2H]-cystine uptake, isotope tracking. Type of assay: cell-based. To be noted: HEK293 cells transfected with SLC7A13 and SLC3A1; labelled compound.

Where a chain is given by its changes, count along the chain named.

As for `N[C@@H](CSSC[C@H](N)C(=O)O)C(=O)O` [cystine], on SLC7A9-SLC3A1 complex, the Kd worked out at 107 ± 33.5 µM. In addition, the cystine uptake entry on SLC7A13-SLC3A1 complex [1], on SLC7A13-SLC3A1 complex [2] and on SLC7A13-SLC3A1 complex [3] was “mutation in any of the seven SLC7A13-specific residues to alanine significantly reduced SLC7A13’s transporter activities” each time.
